Laboratory results as given in patent US6265423A, “Aromatic polycyclic retinoid-type derivatives, method for preparing same, and use thereof for making pharmaceutical and cosmetic compositions” (priority 1996, dated 2001).

What was measured:
RARβ-ERcassette = test: Transactivation, chimerical receptor RARβ-ERcassette (HeLa); type: cell-based; conditions: TTNPB 10^-8 M = 100
Source text: (§1) The HeLa cells are co-transfected by a plasmid which codes for a retinoic receptor in which the C domain of bonding to the DNA is substituted by that of the receptor to RE oestrogens, and a plasmid which places the expression of the luciferase under the control of an ERE (Element of Response to Oestrogens). The expressed chimerical receptors are designated as RARα-ERcassette, RARβ-ERcassette, RARγ-ERcassette and RXRα-ERcassette. The A, B, D, E and F regions of the natural receptor are preserved as well as the transcriptional co-operation between the activation domains AF-1 and AF-2. These transitory transfection experiments follow the method of co-precipitation to calcium phosphate. The HeLa cells are co-transfected by […] of plasmid coding for the chimerical receptor, […] of reporter plasmid and […] of expression vector CMV-β-galactosidase used as an internal control of transfection. 24 hours after the transfection, the cells are incubated for 16 hours with the different effectors.
(§2) In this type of chimerical receptor, the C domain of bonding to the DNA of RAR is substituted by that of the receptor to the RE oestrogens. The protein obtained is close to the natural RAR receptor and preserves the transcriptional properties of the AF-1 and AF-2 domains. It modulates the transcription by means of an ERE. This RAR-ERcassette model allows one to observe a transcriptional response to a more physiological ligand.

[1] = system: ERE-βGlob-Luc, MELN lineage (MCF-7); test: Anti-oestrogenic effect, MELN lineage activated by estradiol; type: cell-based, human
Source text: (§3) Certain properties of the retinoids have been determined using more developed cellular models. These models consist of cellular lineages transfected in a stable fashion by recombinant plasmids which place the expression of the gene of the luciferase under the control of different nuclear response elements. […] The tests carried out in duplicate are described below for each of these models.
MCF-7 cells express RARα,γ and RXRα. The transfection of MCF-7 cells by an oestrogen-dependent gene (ERE-βGlob-Luc) has permitted the establishment of the MELN cellular lineage, used to determine the anti-oestrogenic activity of the retinoids. These cells contain the gene of the luciferase under the transcriptional control of the promoter of the βGlobine and of the response element ERE isolated from the gene of chicken vitelogenine A2. The experiments are carried out with MELN cells activated by 10^-9 M estradiol. The level of base activity of the MELN cells is obtained with the anti-oestrogen 1 μM 4-OH-tamoxifen (hydroxytamoxifen).
The effect of the products tested on the cells activated by 10^-9 M estradiol is expressed as a percentage, the level of base activity being deducted.

RARγ-ERcassette = test: Transactivation, chimerical receptor RARγ-ERcassette (HeLa); type: cell-based; conditions: TTNPB 10^-8 M = 100
Source text: as §1, §2

RARα-ERcassette = test: Transactivation, chimerical receptor RARα-ERcassette (HeLa); type: cell-based; conditions: TTNPB 10^-8 M = 100
Source text: as §1, §2

[2] = system: RAR-ERcassettes (RARα, RARβ, RARγ); test: Chimerical receptors RAR-ERcassettes, overall profile; type: cell-based
Source text: as §1, §2

[3] = system: response element RARE of RARβ gene, endogenic retinoic receptors, HRLN lineage; test: HRLN transactivation (RARE-luciferase, stably transfected HeLa); type: cell-based
Description: (§4) MCF-7 cells and HeLa are cultivated in DMFM with phenol red to which 5% foetal calf serum is added. The T47-D cells are cultivated in RPMI to which 10% foetal calf serum is added. The experimental tests are carried out in DMEM without phenol red to which foetal calf serum treated with dextran carbon is added at 3%. […] The experiments using the different retinoids are carried out sheltered from the light so as to avoid any isomerisation.
as §3
The cellular lineages HRLN and HRL+N allow one to study the activation of an RARE by endogenic receptors using ligands at physiological concentrations. These lineages derive from HeLa cells transfected in a stable fashion by a reporter gene which places the expression of the gene of the luciferase under the control of a nuclear response element RARE (RARE3 -tk-Luc). The HeLa cells express all the known receptors of the retinoic acid (RARα,β,γ and RXRα,β,γ) with a predominance of RARα and RXRα. The response element RARE used for the HRLN cells corresponds to the sequence of the natural gene of the RARβ receptor (GGTTCAnnnnnAGTTCA). The HRL+N cells comprise the sequence GAGTGAnnnnnCGGTGA.
This lineage comprises the response element RARE of the natural gene of the RARβ receptor which controls the expression of the gene of the luciferase.

RAR and RXR receptors = test: RAR/RXR activity profile drawn from the models; type: cell-based
Source text: The reference molecules have allowed one to show the effectiveness and the complementary nature of the different models used and lead to the following conclusions: chimerical constructions GAL-RAR and RAR-ERcassette allow the determination of the RAR agonist profile of molecules, but also an RXR agonist activity with RAR-ERcassette, the HRLN lineage mainly conveys the activity of a compound mediated by endogenic RARα, the HRL+N lineage also provides evidence of an RXR agonist activity of the retinoids, the anti-oestrogenic effect of the retinoids (oestrogen-induced cellular proliferation and MELN lineage) is mediated by RARα, the anti-AP-1 effect is mediated in the MCF-7 cells (MTLN lineage) by RARα, RARγ and RXRα, and an additive effect exists between the RAR and RXR routes.

[4] = system: AP-1, MTLN lineage (MCF-7); test: Anti-AP-1 effect, MTLN lineage activated by TPA; type: cell-based, human
Description: as §3
The anti-factor AP-1 transrepressor effect of retinoids is determined using the MTLN lineage, coming from MCF-7 cells transfected in a stable fashion by a vector p(TRE)3 -tk-Luc which places the expression of the gene of luciferase under the control of […]. TPA activates the AP-1 complex formed from proteins of the family of nuclear proto-oncogenes (c-Jun and c-Fos). […] The experiments are made with the MTLN cells activated by 10^-7 M TPA.
The effect of the compounds on the MTLN cells activated by 10^-7 M TPA is expressed as a percentage. […] The inhibitive properties of the products are calculated after deduction of the base activity of the cells. The percentages reported correspond to a range of inhibitions determined from several experiments.

T-47D cells = test: Effect on oestrogen-induced proliferation of T-47D cells; type: cell-based, human; conditions: Homo sapiens, T47D, 168 h; 10^-6 M; 100% = E2 10^-9 M, 7 days; read-out: growth of T-47D cells
Description: as §4
So as to test the anti-proliferation effect of the retinoids, growth experiments under oestrogenic conditions were carried out on cells MCF-7 and T-47D. These are the human oestrogen-dependent mammary cancer cells which express the receptor to RE oestrogens. The effect of the molecules is evaluated after 7 days of culture in oestrogenic conditions (estradiol 10^-9 M) by dosing the cellular DNA. The cells are distributed in 24 well plates at a density of 2×10^4 cells per well. The tests with the different retinoids are carried out in triplicate and the culture medium is changed after 4 days of growth.

[5] = system: ZR-75-1 human mammary cancer cells; test: MTT test, proliferation of ZR-75-1; type: cell-based
Description: (§5) The cells that were cultured came from the ATCC (American Type Culture Collection).
(§6) The cellular lines are kept in culture in a monolayer at 37° C. in closed culture dishes (Nunc. Gibco BRL, Life Technologies, Belgium) containing the minimum essential medium (MEM, Gibco) supplemented with 5% of Foetal Calf Serum, (FCS, Gibco), 0.6 mg/ml of glutamine (Gibco) and a mixture of 200 IU/mi of penicillin (Gibco), 200 μg/ml of streptomycin (Gibco) and 0.1 mg/ml of gentamycin (Gibco). The foetal calf serum is decomplemented for 1 hour at 56° C.
(§7) This test is based on the mitochondrial reduction by living metabolically active cells of the MTT (3-(4,5-dimethylthiazol-2-yl)-2,5-diphenyltetrazolium bromide) of yellowish colour into a blue coloured product, formazan. The quantity of formazan obtained is directly proportional to the number of living cells. After incubation of the cells for 24 hours in microplates with 96 flat bottomed wells, the culture medium is replaced by 100 μl of fresh culture medium containing the drug to be tested.
(§8) The microplates are then incubated for 3 hours at 37° C. and centrifuged for 10 minutes at 400 g (GPR centrifuge, Beckman). The MTT solution is replaced by 100 μl of dimethylsulphoxide (Merck). The microplates are agitated (Vari-Shaker, Dynatech) for 10 minutes.
(§9) In the microplates, the control cells like the treated cells were incubated in a medium without the compounds to be tested for 24 hours. The control cells are incubated in a medium without a drug throughout the whole experiment, while the treated cells are incubated in different media. These media contain the molecule to be tested at various concentrations: 10^-8 M, 10^-6 M and 10^-4 M. All the tests are carried out in 6 duplicates.
(§10) The statistical comparisons are carried out according to the Fisher Test:
(§11) The mean optical density measured for each experimental condition is expressed as a percentage in relation to the laid down control condition being equal to 100%.

[6] = system: T-47D human mammary cancer cells; test: MTT test, proliferation of T-47D; type: cell-based
Description: as §5, §6, §7, §8, §9, §10, §11

[7] = cited from earlier work
[8] = system: A-427 human pulmonary cancer cells; test: MTT test, proliferation of A-427; conditions: Homo sapiens, A-427, 72 h, read-out: level of proliferation
[9] = system: A549 human pulmonary cancer cells; test: MTT test, proliferation of A549; type: cell-based
[10] = Homo sapiens, A549, 72 h, read-out: level of proliferation

With C/C(=C/c1ccc2c(c1)C(C)(C)CCC2(C)C)c1ccc(C(=O)O)s1 [CB30382, (Z) 2-[1-(5,6,7,8-tetrahydro-5,5,8,8-tetramethyl-2-naphthalenyl)-2-propenyl]thienyl-5-carboxylic acid] as the compound, how does the “RAR-ERcassette RARβ transactivation” value (RARβ-ERcassette; 10^-6 M) read?
The value was 130%.

What about the “RAR-ERcassette RARβ transactivation” value (RARβ-ERcassette; 10^-7 M) of the same compound?
Its value is 39%.

What about the inhibition ([1]; Homo sapiens, MCF7, 10^-6 M, cells activated by 10^-9 M estradiol) of the same compound?
Its inhibition is 2 to 20%.

What about the inhibition at 0.1 µM ([1]; Homo sapiens, MCF7, 10^-7 M, cells activated by 10^-9 M estradiol, read-out: anti-oestrogenic effect, inhibition) of the same compound?
Its inhibition at 0.1 µM is 0%.

And the “anti-oestrogenic effect (in words)” value ([1]; estradiol-activated MELN cells)?
The value was “permit a transrepression of a controlled gene by an ERE”.

And the “RAR-ERcassette RARγ transactivation” value (RARγ-ERcassette; 10^-6 M)?
The value was 83%.

And the “RAR-ERcassette RARγ transactivation” value (RARγ-ERcassette; 10^-7 M)?
The value was 29%.

And the “RAR-ERcassette RARα transactivation” value (RARα-ERcassette; 10^-6 M)?
Its value is 93%.

What about the “RAR-ERcassette RARα transactivation” value (RARα-ERcassette; 10^-7 M) of the same compound?
Its value is 12%.

And the “RAR-ERcassette profile (in words)” value [2]?
The value was “induce a transactivation mediated by the three receptors”.

And the “HRLN transactivation (in words)” value [3]?
The value was “induce a transactivation close to that of TTNPB”.

And the Emax ([3]; Homo sapiens, HeLa, read-out: HRLN transactivation, E max)?
Its Emax is 102%.

What about the “RAR/RXR activity profile (in words)” value (RAR and RXR receptors) of the same compound?
Its value is “panagonistic”.

What about the inhibition at 1 µM ([4]; Homo sapiens, MCF7, 10^-6 M, cells activated by 10^-7 M TPA, range of several experiments) of the same compound?
The inhibition at 1 µM was 42 to 47%.

What about the inhibition at 0.1 µM ([4]; Homo sapiens, MCF7, 10^-7 M, cells activated by 10^-7 M TPA, range of several experiments, read-out: anti-AP-1 effect, inhibition) of the same compound?
Its inhibition at 0.1 µM is 21%.

What about the “anti-AP-1 effect (in words)” value ([4]; TPA-activated MTLN cells) of the same compound?
The value was “exert an inhibitor effect comparable to that of the effect of CB28628”.

What about the activity at 1 µM (T-47D cells) of the same compound?
The activity at 1 µM was 73 to 94%.

Which activity at 100 µM ([5]; Homo sapiens, ZR-75-1, 10^-4 M, 72 h, control = 100%, read-out: level of proliferation) does the source give for CC1=C(/C=C/C(C)=C/C=C/C(C)=C\C(=O)O)C(C)(C)CCC1 [CB81808, 13-cis retinoic acid, reference compound] here?
The activity at 100 µM was 2.3%.

What about the activity at 1 µM ([5]; Homo sapiens, ZR-75-1, 10^-6 M, 72 h, control = 100%, read-out: level of proliferation) of the same compound?
The activity at 1 µM was 55%.

And the activity at 0.01 µM ([5]; Homo sapiens, ZR-75-1, 10^-8 M, 72 h, control = 100%, read-out: level of proliferation)?
The activity at 0.01 µM was 41.6%.

What about the “effect on cellular increase, ZR-75-1 (in words)” value ([5]; MTT test) of the same compound?
The value was “inhibit the cellular increase of the two mammary lineages at the concentrations tested”.

And the activity at 100 µM ([6]; Homo sapiens, T47D, T-47D, 10^-4 M, 72 h, control = 100%, read-out: level of proliferation)?
Its activity at 100 µM is 9.94%.

What about the activity at 1 µM ([6]; Homo sapiens, T47D, T-47D, 10^-6 M, 72 h, control = 100%, read-out: level of proliferation) of the same compound?
Its activity at 1 µM is 51.8%.

And the activity at 0.01 µM ([6]; Homo sapiens, T47D, T-47D, 10^-8 M, 72 h, control = 100%, read-out: level of proliferation)?
Its activity at 0.01 µM is 70.3%.

And the “effect on cellular increase, T-47D (in words)” value ([6]; MTT test)?
Its value is “inhibit the cellular increase of the two mammary lineages at the concentrations tested”.

What about the “adverse effects in chronic treatment (in words)” value [7] of the same compound?
The value was “powerful effect of hypervitaminose, of mucocutaneous toxicity and of teratogenecity”.

And the activity at 0.01 µM [8]?
The activity at 0.01 µM was 100%.

And the activity at 1 µM [8]?
The activity at 1 µM was 99.6%.

And the activity at 100 µM [8]?
The activity at 100 µM was 6.5%.

And the activity at 0.01 µM [9, 10]?
Its activity at 0.01 µM is 77.6%.

What about the activity at 1 µM [9, 10] of the same compound?
Its activity at 1 µM is 85.9%.

What about the activity at 100 µM [9, 10] of the same compound?
The activity at 100 µM was 23.6%.

What about the “effect on cellular increase, A549 (in words)” value ([9]; MTT test) of the same compound?
The value was “inhibit the proliferation of the A549 lineage at 10^-6 M and 10^-8 M”.
